# Patent publication US20090203908A1, “Activator for Peroxisome Proliferator-Activated Receptor” (NIPPON CHEMIPHAR CO., LTD., priority 2005, published 2009)
# Where two headings read alike, the source gives them in different places.
# Legend:
# hPPAR α (LBD) = target: T1, hPPAR α (LBD) (Homo sapiens, UniProt Q07869); experiment: PPAR activating effect, GAL4-hPPARα (LBD) luciferase reporter in CV-1 cells
# T1 sequence (Q07869 239-466 limits assumed): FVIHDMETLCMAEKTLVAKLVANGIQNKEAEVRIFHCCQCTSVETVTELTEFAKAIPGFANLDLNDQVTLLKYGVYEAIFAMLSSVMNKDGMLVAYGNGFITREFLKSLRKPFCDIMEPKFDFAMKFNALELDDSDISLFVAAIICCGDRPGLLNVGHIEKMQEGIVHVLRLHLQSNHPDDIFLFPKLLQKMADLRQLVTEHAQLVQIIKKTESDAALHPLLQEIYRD
# Method: (§1) For determining PPAR activating effects of the compounds according to the invention were measured by the following method:
# (§2) After gene transfer utilizing a lipofection reagent DMRIE-C or Lipofectamin 2000 (Invitrogen), it is incubated for 42 hours in the presence of the test compound. Then, the luciferase activity and β-GAL activity are measured on the soluble cells. The luciferase activity is calibrated by the β-GAL activity.
# (§3) The PPAR activating effects of test compounds (compounds of Examples) were measured by the following method:
# (§4) After gene transfer utilizing a lipofection reagent DMRIE-C or Lipofectamin 2000 (Invitrogen), it is incubated for approx. 40 hours in the presence of the test compound. Then, the luciferase activity and β-GAL activity are measured on the soluble cells. The luciferase activity is calibrated by the β-GAL activity. […] Then, EC50 was obtained.
# hPPAR γ (LBD) = target: T2, hPPAR γ (LBD) (Homo sapiens, UniProt P37231); experiment: PPAR activating effect, GAL4-hPPARγ (LBD) luciferase reporter in CV-1 cells
# T2 sequence (P37231 238-503 limits assumed): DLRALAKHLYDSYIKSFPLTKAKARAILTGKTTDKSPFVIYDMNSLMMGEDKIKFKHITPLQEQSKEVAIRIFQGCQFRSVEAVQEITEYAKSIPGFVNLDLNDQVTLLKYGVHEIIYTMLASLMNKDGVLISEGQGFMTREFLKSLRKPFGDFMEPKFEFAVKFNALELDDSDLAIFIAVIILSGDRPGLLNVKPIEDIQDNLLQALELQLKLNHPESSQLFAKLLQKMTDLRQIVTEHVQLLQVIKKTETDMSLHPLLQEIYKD
# Method: as §1, §2, §3, §4
# hPPAR δ (LBD) = target: T3, hPPAR δ (LBD) (Homo sapiens, UniProt Q03181); experiment: PPAR activating effect, GAL4-hPPARδ (LBD) luciferase reporter in CV-1 cells
# T3 sequence (Q03181 211-439 limits assumed): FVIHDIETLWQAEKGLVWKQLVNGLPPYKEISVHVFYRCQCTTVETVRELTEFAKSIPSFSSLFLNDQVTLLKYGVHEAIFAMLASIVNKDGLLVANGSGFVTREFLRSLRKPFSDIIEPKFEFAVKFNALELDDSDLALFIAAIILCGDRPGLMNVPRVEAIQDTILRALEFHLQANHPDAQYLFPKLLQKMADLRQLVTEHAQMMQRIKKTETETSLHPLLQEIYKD
# Method: as §1, §2, §3, §4
# hPPAR α or γ or δ (LBD) = experiment: PPAR activating effect, overall assessment over the subtypes (GAL4-hPPAR luciferase reporter in CV-1 cells); conditions: summary of Table 17, PPARα and PPARγ
# Method: as §1, §2, §3, §4
SMILES,EC50 (hPPAR α (LBD)) [nM],EC50 (hPPAR γ (LBD)) [nM],EC50 (hPPAR δ (LBD)) [nM],α/γ dual agonist effects (in words) (hPPAR α or γ or δ (LBD)),"EC50 (hPPAR δ (LBD); read-out: PPAR activity: EC50, δ, CV-1 cells, approx. 40 hours incubation, 100% control GW-501516 10^−7 M) [nM]",PPARα agonist effect (in words) (hPPAR α (LBD); summary of Table 17)
"COc1cccc(N2CCN(Cc3nc(-c4ccc(C(F)(F)F)cc4)sc3CCC(=O)c3ccc(OC(C)(C)C(=O)O)c(C)c3)CC2)c1 [Example 4, 2-[4-[3-[4-[4-(3-Methoxyphenyl)piperazin-1-yl-methyl]-2-(4-trifluoromethylphenyl)-5-thiazolyl]propionyl]-2-methylphenoxy]-2-methylpropionic Acid]",210,1300,4400,–,–,–
"Cc1cc(C(=O)CCc2sc(-c3ccc(C(F)(F)F)cc3)nc2CN2CCN(c3ccc(OC(F)(F)F)cc3)CC2)ccc1OC(C)(C)C(=O)O [Example 15, 2-[4-[3-[4-[4-(4-Trifluoromethoxyphenyl)piperazin-1-ylmethyl]-2-(4-trifluoromethylphenyl)-5-thiazol-yl]propionyl]-2-methylphenoxy]-2-methylpropionic Acid]",290,750,6300,–,–,–
"Cc1cc(C(=O)CCc2sc(-c3ccc(C(F)(F)F)cc3)nc2CN2CCN(c3ccc(OC(C)C)cc3)CC2)ccc1OC(C)(C)C(=O)O [Example 16, 2-[4-[3-[4-[4-(4-Isopropyloxyphenyl)piperazin-1-ylmethyl]-2-(4-trifluoromethylphenyl)-5-thiazolyl]propionyl]-2-methylphenoxy]-2-methylpropionic Acid]",180,290,2300,good α/γ dual agonist effects,–,–
"CCOc1ccc(N2CCN(Cc3nc(-c4ccc(C(F)(F)F)cc4)sc3CCC(=O)c3ccc(OC(C)(C)C(=O)O)c(C)c3)CC2)cc1 [Example 13, 2-[4-[3-[4-[4-(4-Ethoxyphenyl)piperazin-1-yl-methyl]-2-(4-trifluoromethylphenyl)-5-thiazolyl]propionyl]-2-methylphenoxy]-2-methylpropionic Acid]",330,280,1100,–,–,–
"COc1ccc(CC2SC(=O)NC2=O)cc1C(=O)NCc1ccc(C(F)(F)F)cc1 (stereo not shown) [KRP-297, reference compound]",–,–,–,–,13900,–
"Cc1ccc(N2CCN(Cc3nc(-c4ccc(C(F)(F)F)cc4)sc3CCC(=O)c3ccc(OC(C)(C)C(=O)O)c(C)c3)CC2)cc1 [Example 6, 2-[4-[3-[4-[4-(4-Methylphenyl)piperazin-1-yl-methyl]-2-(4-trifluoromethylphenyl)-5-thiazolyl]propionyl]-2-methylphenoxy]-2-methylpropionic Acid]",550,490,4900,–,–,–
"Cc1cc(C(=O)CCc2sc(-c3ccc(C(F)(F)F)cc3)nc2CN2CCN(c3ccc(C(F)(F)F)cc3)CC2)ccc1OC(C)(C)C(=O)O [Example 5, 2-[4-[3-[4-[4-(4-Trifluoromethylphenyl)-piperazin-1-ylmethyl]-2-(4-trifluoromethylphenyl)-5-thiazolyl]propionyl]-2-methylphenoxy]-2-methylpropionic Acid]",90,3200,5200,–,–,strong and selective PPARα agonist effect
"COc1ccc(N2CCN(Cc3nc(-c4ccc(C(F)(F)F)cc4)sc3CCC(=O)c3ccc(OC(C)(C)C(=O)O)c(C)c3)CC2)cc1 [Example 3, 2-[4-[3-[4-[4-(4-Methoxyphenyl)piperazin-1-yl-methyl]-2-(4-trifluoromethylphenyl)-5-thiazolyl]propionyl]-2-methylphenoxy]-2-methylpropionic Acid]",> 10000,660,920,–,–,–
"Cc1cc(C(=O)CCc2sc(-c3ccc(C(F)(F)F)cc3)nc2CN2CCN(c3ccc(C(C)C)cc3)CC2)ccc1OC(C)(C)C(=O)O [Example 11, 2-[4-[3-[4-[4-(4-Isopropylphenyl)piperazin-1-ylmethyl]-2-(4-trifluoromethylphenyl)-5-thiazolyl]propionyl]-2-methylphenoxy]-2-methylpropionic Acid]",92,300,3000,good α/γ dual agonist effects,–,–
"COc1ccc(N2CCN(Cc3nc(-c4ccc(C(F)(F)F)cc4)sc3CCC(=O)c3ccc(OC(C)(C)C(=O)O)c(C)c3)CC2)cc1OC [Example 12, 2-[4-[3-[4-[4-(3,4-Dimethoxyphenyl)piperazin-1-ylmethyl]-2-(4-trifluoromethylphenyl)-5-thiazolyl]propionyl]-2-methylphenoxy]-2-methylpropionic Acid]",940,1700,3800,–,–,–
